From patent publication US20030135023A1, “Peptide structures useful for competitive modulation of dipeptidyl peptidase IV catalysis” (priority 2001, published 2003)
Like-named read-outs stand apart in the source and are kept apart here. Square brackets hold non-standard residues; d marks the D form. Peptide text beside a SMILES is read from it. pY = N[C@@H](Cc1ccc(OP(=O)(O)O)cc1)C(=O)O; pS = N[C@@H](COP(=O)(O)O)C(=O)O; Cha = N[C@@H](CC1CCCCC1)C(=O)O; Tle = CC(C)(C)[C@H](N)C(=O)O

Tests used:
PEPT2 [1] = biological target: T1, PEPT2 (Homo sapiens, UniProt Q16348); test: Electrophysiological analysis of transport currents in Xenopus oocytes expressing PEPT2; type: cell-based, mammalian; conditions: transport current in Xenopus oocytes relative to 5 mM Gly-Gln
T1 construct: expressed in transfected cells; host or cells: transgenic yeast cells
T1 sequence (Q16348 1-729): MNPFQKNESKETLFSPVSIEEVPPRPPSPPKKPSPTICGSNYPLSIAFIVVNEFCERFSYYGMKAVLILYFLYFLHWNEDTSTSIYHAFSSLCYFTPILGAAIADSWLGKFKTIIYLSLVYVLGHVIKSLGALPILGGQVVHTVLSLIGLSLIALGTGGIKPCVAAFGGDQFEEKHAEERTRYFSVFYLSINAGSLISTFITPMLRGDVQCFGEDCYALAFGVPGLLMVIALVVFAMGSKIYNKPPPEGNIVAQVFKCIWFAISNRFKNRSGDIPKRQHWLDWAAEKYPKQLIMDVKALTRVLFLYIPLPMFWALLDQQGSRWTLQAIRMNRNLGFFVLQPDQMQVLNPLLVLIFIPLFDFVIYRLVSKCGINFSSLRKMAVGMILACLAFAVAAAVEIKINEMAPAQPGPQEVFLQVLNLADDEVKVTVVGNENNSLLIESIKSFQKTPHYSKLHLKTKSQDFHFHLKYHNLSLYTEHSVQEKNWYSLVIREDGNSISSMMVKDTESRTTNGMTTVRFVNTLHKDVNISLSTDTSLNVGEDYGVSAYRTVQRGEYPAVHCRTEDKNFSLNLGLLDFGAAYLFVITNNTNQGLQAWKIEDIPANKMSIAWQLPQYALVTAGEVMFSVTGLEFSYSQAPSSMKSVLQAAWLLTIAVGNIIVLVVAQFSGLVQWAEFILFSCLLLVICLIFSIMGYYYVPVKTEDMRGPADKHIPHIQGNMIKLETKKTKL
From the text: (§1) For the analysis o the interaction of the inhibitors of prolyl-specific proteases with the mammalian peptide transporters two assay systems were used. First, all test compounds were submitted to the competition assay with transgenic yeast cells to determine the dose-dependent displacement (EC50 values) of the radiolabeled tracer dipepitde from the substrate binding site. […] As the level of functional expression varies in oocytes, each test compound was compared in the same oocyte with the current elicited by 5 mM of the dipeptide glycyl-L-glutamine (Gly-Gln). Currents of test compounds are therefore given relative to that by Gly-Gln as %I Gly-Gin, expressed as residual uptake in table 10.

purified porcine DP IV [2] = biological target: T2, purified porcine DP IV (Sus scrofa, UniProt P22411); test: Determination of Ki-values, Gly-Pro-pNA cleavage by DP IV; type: biochemical; conditions: Gly-Pro-pNA 0.05-0.4 mM
Experimental: (§2) 100 μl inhibitor stock solution were mixed with 100 μl buffer (HEPES pH 7.6) and 50 μl substrate (Gly-Pro-pNA, final concentration 0.4 mM) and preincubated at 30° C. Reaction was started by addition of 20 μl purified porcine DP IV. Formation of the product pNA was measured at 405 nm over 10 min using the HTS 7000 Plus plate reader (Perkin Elmer) and slopes were calculated. The final inhibitor concentrations ranged between 1 mM and 30 nM.
Calculations were performed using the GraFit Software.

PEPT1 [3] = biological target: T3, PEPT1 (Homo sapiens, UniProt P46059); test: Electrophysiological analysis of transport currents in Xenopus oocytes expressing PEPT1; type: cell-based, mammalian; conditions: transport current in Xenopus oocytes relative to 5 mM Gly-Gln
T3 construct: expressed in transfected cells; host or cells: transgenic yeast cells
T3 sequence (P46059 1-708): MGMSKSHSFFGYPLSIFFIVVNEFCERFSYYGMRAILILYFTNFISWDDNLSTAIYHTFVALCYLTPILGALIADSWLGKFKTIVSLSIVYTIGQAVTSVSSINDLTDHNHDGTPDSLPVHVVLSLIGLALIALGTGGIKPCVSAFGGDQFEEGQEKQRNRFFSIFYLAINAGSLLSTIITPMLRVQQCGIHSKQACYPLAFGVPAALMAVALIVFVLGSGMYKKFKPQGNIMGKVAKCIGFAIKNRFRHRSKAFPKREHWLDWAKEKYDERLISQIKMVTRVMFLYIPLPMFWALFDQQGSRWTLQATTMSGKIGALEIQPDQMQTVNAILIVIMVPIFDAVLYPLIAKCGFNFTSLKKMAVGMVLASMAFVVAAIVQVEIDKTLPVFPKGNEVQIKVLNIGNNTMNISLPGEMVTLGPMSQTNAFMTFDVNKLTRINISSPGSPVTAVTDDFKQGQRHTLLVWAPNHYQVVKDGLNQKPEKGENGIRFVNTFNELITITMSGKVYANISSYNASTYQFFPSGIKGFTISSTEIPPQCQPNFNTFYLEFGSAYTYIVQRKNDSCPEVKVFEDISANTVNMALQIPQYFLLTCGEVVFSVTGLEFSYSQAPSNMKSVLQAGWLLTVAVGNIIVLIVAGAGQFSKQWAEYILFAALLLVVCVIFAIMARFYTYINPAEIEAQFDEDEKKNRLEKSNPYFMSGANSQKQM
From the text: as §1

PEPT1 [4] = biological target: T3, PEPT1; test: Competition assay with transgenic yeast cells, displacement of radiolabeled tracer dipeptide, PEPT1; type: binding, mammalian
From the text: as §1

PEPT2 [5] = biological target: T1, PEPT2; test: Competition assay with transgenic yeast cells, displacement of radiolabeled tracer dipeptide, PEPT2; type: binding, mammalian
From the text: as §1

purified porcine DP IV [6] = biological target: T2, purified porcine DP IV; test: Determination of IC50-values, Gly-Pro-pNA cleavage by DP IV; type: biochemical
Experimental: as §2
For calculation of IC50-values GraFit 4.0.13 (Erithacus Software) was used.

plasma DP IV = biological target: T4, plasma DP IV (Rattus norvegicus, UniProt P14740); test: Plasma DP IV activity after intravasal and oral administration in Wistar rats; type: in vivo
T4 construct: The assay mixture consisted of 80 μl reagent and 20 μl plasma; from tissue; host or cells: plasma of Wistar rats
Experimental: Rats with intact catheter function were given the test substances intravasal (intraarterial) or oral, respectively, in random order (N=3 Wistar rats in each group). As positive control, […]. isoleucine thiazolidine*fumarate were administered intravasal.
After overnight fasting, 100 μl samples of heparinized arterial blood were collected at −30, −5, and 0 min into ice-cooled Eppendorf tubes (see below). The test substances were dissolved freshly in 1.0 ml saline (0.154 mol/l) and were given at 0 min either oral via a feeding tube ([…], 75 mm; Fine Science Tools, Heidelberg, Germany) or intravasal. For the intravasal route, the catheter was immediately flushed with 30 μl saline and an additional 1 ml of saline was given orally via the feeding tube.
Arterial blood samples were taken thereafter at 5, 10 (only in a limited number of experiments), 20, 40, 60 and 120 min from the carotid catheter of the conscious unrestrained rats and were always given into ice cooled Eppendorf tubes (Eppendorf-Netheler-Hinz, Hamburg, Germany) filled with 10 μl 1 M citrate buffer pH 3.0 for prevention of further hydrolysis of tripeptides by plasma DP IV activity. Eppendorf tubes were centrifuged immediately (12000 rpm for 2 min, Hettich Zentrifuge EBA 12, Tuttlingen; Germany): The plasma fractions were store on ice until analysis or were deeply frozen at −20 ° C. until analysis.
Plasma DP IV activity: The assay mixture consisted of 80 μl reagent and 20 μl plasma. Kinetic measurements of the formation of the yellow product 4-nitroaniline were performed at 390 nm for 1 min at 30° C. after 2 min pre-incubation at the same temperature. The activity was expressed as arbitrary units [AU] and DP IV activity [mU/ml].
The absolute values of plasma DP IV activity, the relative change of plasma DP IV activity and the time and extent of maximal inhibition were calculated. Data presentation included the presentation of area under the curve (AUC), which was used for evaluation of extent of inhibition of plasma DP IV activity during the two hours of observation. AUC was calculated using the trapezoidal rule.
To compare relative changes of parameters under the conditions of different initial values of DP IV activity an uniform standardised mean (values) was set up at the beginning of the test (see Figures and Tables).
Statistical evaluations were performed with Microsoft Excel® 97. All variables are presented as mean and standard deviation (SD). Treatment groups were compared by Student's t-test, within-group changes by paired t-test. Two-tailed values of p<0.05 were considered significant.

[7] = displacement of radiolabeled tracer dipeptide, transgenic yeast cells, read-out: PEPT1 EC50
[8] = displacement of radiolabeled tracer dipeptide, transgenic yeast cells, read-out: PEPT2 EC50
[9] = Gly-Pro-pNA 0.4 mM, HEPES pH 7.6, 30° C., read-out: IC50

T2 sequence (P22411 whole entry): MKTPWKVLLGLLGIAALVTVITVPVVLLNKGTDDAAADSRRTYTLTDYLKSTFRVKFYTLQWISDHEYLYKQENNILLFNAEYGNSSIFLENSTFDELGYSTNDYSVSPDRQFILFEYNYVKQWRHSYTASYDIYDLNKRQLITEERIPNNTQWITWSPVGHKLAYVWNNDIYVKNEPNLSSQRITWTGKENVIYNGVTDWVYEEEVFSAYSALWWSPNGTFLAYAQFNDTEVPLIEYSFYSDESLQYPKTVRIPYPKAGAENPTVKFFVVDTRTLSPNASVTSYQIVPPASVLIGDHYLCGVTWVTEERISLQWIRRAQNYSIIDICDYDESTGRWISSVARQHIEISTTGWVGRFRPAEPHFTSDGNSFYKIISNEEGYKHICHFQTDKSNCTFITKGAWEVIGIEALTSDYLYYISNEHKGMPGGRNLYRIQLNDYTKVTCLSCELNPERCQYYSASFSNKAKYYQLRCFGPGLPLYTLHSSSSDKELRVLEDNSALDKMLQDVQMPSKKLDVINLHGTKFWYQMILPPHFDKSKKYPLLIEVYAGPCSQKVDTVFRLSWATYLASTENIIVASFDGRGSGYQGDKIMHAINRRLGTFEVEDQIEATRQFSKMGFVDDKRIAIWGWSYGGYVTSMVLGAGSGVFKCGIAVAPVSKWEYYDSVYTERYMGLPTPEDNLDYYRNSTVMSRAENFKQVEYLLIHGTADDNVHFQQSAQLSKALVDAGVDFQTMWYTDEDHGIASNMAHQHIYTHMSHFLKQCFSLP
T4 sequence (P14740 37-767 limits assumed): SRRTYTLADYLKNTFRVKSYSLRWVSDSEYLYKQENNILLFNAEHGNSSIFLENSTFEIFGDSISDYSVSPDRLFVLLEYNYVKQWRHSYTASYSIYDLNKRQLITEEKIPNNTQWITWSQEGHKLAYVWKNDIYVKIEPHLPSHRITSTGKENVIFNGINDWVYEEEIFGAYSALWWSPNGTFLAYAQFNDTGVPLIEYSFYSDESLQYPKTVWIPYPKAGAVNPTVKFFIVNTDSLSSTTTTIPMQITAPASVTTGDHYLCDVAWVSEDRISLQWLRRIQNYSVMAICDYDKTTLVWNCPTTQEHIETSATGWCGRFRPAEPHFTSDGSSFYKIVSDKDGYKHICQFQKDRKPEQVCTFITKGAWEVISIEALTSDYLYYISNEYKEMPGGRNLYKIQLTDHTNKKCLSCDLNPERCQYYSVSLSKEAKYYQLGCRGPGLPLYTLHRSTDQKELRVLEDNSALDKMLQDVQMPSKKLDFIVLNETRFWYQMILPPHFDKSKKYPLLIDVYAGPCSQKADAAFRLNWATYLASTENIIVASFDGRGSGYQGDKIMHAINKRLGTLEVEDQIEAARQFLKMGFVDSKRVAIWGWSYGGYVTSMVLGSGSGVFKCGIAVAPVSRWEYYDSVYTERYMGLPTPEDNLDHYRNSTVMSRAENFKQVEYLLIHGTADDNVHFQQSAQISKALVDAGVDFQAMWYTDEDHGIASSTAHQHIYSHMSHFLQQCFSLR

`CC[C@H](C)[C@H](NC(=O)[C@@H]1CCCN1C(=O)[C@@H](N)CC1CCCCC1)C(=O)O` [Cha-Pro-Ile] (H-[Cha]-Pro-Ile-OH; N-terminus and C-terminus assumed) was tested, and the “PEPT2 Residual uptake % IGly-Gln” value (PEPT2 [1]) was 100 % IGly-Gln, the Ki (purified porcine DP IV [2]) was 0.00599 mM and the “PEPT1 Residual uptake % IGly-Gln” value (PEPT1 [3]) was 90 % IGly-Gln. The EC50 (PEPT1 [4]; [7]) was 0.141 ± 0.009 mM, the EC50 (PEPT2 [5]; [8]) was 0.124 ± 0.001 mM and the IC50 (purified porcine DP IV [6]; [9]) was 0.0203 mM.

For `CC[C@H](C)[C@H](NC(=O)[C@@H]1CCCN1C(=O)[C@@H](N)COP(=O)(O)O)C(=O)O` [Ser(P)-Pro-Ile] (H-[pS]-Pro-Ile-OH; N-terminus and C-terminus assumed), the “PEPT2 Residual uptake % IGly-Gln” value (PEPT2 [1]) was 0 % IGly-Gln, the “PEPT1 Residual uptake % IGly-Gln” value (PEPT1 [3]) was 0 % IGly-Gln and the EC50 (PEPT1 [4]; [7]) was 4.1 ± 1.3 mM. The EC50 (PEPT2 [5]; [8]) was 4.9 ± 1.09 mM and the IC50 (purified porcine DP IV [6]; [9]) was 12 mM.

For `CC[C@H](C)[C@H](NC(=O)[C@@H]1CCCN1C(=O)[C@@H](N)Cc1ccc(OP(=O)(O)O)cc1)C(=O)O` [Tyr(P)-Pro-Ile] (H-[pY]-Pro-Ile-OH; N-terminus and C-terminus assumed), the “PEPT2 Residual uptake % IGly-Gln” value (PEPT2 [1]) was 0 % IGly-Gln, the “PEPT1 Residual uptake % IGly-Gln” value (PEPT1 [3]) was 0 % IGly-Gln and the EC50 (PEPT1 [4]) was 0.902 ± 0.058 mM. For the same molecule, the “DPIV inhibition at tmax, p.o.” value (plasma DP IV; Wistar rats, p.o., 100 mg/kg) was “no inhibition”, the inhibition at 100 mg/kg (plasma DP IV; rat, iv, read-out: DPIV inhibition at tmax, i.v.) was 37% and the EC50 (PEPT2 [5]) was 0.39 ± 0.017 mM. It also gave an IC50 (purified porcine DP IV [6]) of 1.77 mM.

For `CC[C@@H](C)[C@@H](NC(=O)[C@@H]1CCCN1C(=O)[C@@H](N)C(C)(C)C)C(=O)O` [t-butyl-Gly-Pro-D-Ile] (H-[Tle]-Pro-[dI]-OH; N-terminus and C-terminus assumed), the “PEPT2 Residual uptake % IGly-Gln” value (PEPT2 [1]) was 0 % IGly-Gln, the “PEPT1 Residual uptake % IGly-Gln” value (PEPT1 [3]) was 0 % IGly-Gln and the EC50 (PEPT1 [4]; [7]) was 10.6 ± 0.064 mM. It also gave an EC50 (PEPT2 [5]; [8]) of 2.3 ± 1.12 mM.

With `CC(C)[C@@H](NC(=O)[C@@H]1CCCN1C(=O)[C@@H](N)C(C)(C)C)C(=O)O` [t-butyl-Gly-Pro-D-Val] (H-[Tle]-Pro-[dV]-OH; N-terminus and C-terminus assumed) the “PEPT2 Residual uptake % IGly-Gln” value (PEPT2 [1]) was 0 % IGly-Gln, the Ki (purified porcine DP IV [2]) was 0.0265 mM and the “PEPT1 Residual uptake % IGly-Gln” value (PEPT1 [3]) was 0 % IGly-Gln. For the same molecule, the EC50 (PEPT1 [4]; [7]) was 11.1 ± 2.8 mM, the EC50 (PEPT2 [5]; [8]) was 1.5 ± 0.24 mM and the IC50 (purified porcine DP IV [6]; [9]) was 0.112 mM.
